In patent US20250221966A1, “RXFP1 AGONISTS” (BRISTOL-MYERS SQUIBB COMPANY, priority 2021, published 2025):

biological target: T1, human RXFP1 (Homo sapiens, UniProt Q9HBX9); assay: RXFP1 cAMP assay (hRXFP1 HEK293 cAMP assay, HTRF); format: cell-based; conditions: HEK293 cells stably expressing human RXFP1, 30 min at room temperature, read-out: cAMP hRXFP1 HEK293 Assay EC50
T1 construct: expressed in transfected cells
T1 sequence (Q9HBX9 1-757): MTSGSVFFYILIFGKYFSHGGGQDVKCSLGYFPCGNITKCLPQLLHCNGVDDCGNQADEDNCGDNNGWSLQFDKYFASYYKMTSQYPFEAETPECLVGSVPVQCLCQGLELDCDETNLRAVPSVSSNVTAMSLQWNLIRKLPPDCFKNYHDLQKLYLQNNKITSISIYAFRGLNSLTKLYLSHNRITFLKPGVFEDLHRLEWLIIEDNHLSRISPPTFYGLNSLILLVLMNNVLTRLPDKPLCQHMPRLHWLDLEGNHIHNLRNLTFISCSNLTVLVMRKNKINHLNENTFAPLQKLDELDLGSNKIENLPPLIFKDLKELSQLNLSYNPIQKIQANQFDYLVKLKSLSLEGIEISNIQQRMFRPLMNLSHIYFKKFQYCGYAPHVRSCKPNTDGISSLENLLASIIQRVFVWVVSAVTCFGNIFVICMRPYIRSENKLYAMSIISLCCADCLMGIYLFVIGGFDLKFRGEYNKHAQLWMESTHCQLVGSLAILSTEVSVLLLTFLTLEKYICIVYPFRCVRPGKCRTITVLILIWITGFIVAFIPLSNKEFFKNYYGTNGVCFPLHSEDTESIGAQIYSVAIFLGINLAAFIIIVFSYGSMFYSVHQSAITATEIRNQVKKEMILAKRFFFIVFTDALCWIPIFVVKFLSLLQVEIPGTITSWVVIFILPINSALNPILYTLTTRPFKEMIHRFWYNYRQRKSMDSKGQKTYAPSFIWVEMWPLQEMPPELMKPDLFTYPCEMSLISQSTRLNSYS
Description: RXFP1 Cyclic Adenosine Monophosphate (cAMP) Assays. […] Cells were dissociated and suspended in assay buffer. The assay buffer was HBSS buffer (with calcium and magnesium) containing 20 mM HEPES, 0.05% BSA, and 0.5 mM IBMX. Cells (3000 cells per well, except 1500 cell per well for HEK293 cells stably expressing human RXFP1) were added to 384-well Proxiplates (Perkin-Elmer). Cells were immediately treated with test compounds in DMSO (2% final) at final concentrations in the range of 0.010 nM to 50 μM. Cells were incubated for 30 min at room temperature. The level of intracellular cAMP was determined using the HTRF HiRange cAMP assay reagent kit (Cisbio) according to manufacturer's instructions. Solutions of cryptate conjugated anti-cAMP and d2 fluorophore-labelled cAMP were made in a supplied lysis buffer separately. Upon completion of the reaction, the cells were lysed with equal volume of the d2-cAMP solution and anti-cAMP solution. […] The potency and activity of a compound to […] cAMP production was then determined by fitting to a 4-parametric logistic equation from a plot of cAMP level versus compound concentrations.

EC50 [nM] | SMILES
120 | COc1cc(F)c(F)cc1C(=O)N[C@@H]1C2CCC(/C2=C/c2cccc(Cl)c2)[C@@H]1C(=O)Nc1ccc(F)c(C(F)(F)F)c1 (some centres unmarked) [compound 17]
4980 | O=C(N[C@H]1[C@@H](C(=O)Nc2ccc(F)c(C(F)(F)F)c2)[C@H]2CC[C@@H]1/C2=C\C1CC1)c1cc(C2=NOC3CC(CO)CC23)ccc1F (single isomer, unassigned) [compound 723]
207 | COc1ccc([C@H]2CO[C@@H]3[C@H]2OC[C@H]3O)cc1C(=O)N[C@H]1[C@@H](C(=O)Nc2ccc(F)c(C(F)(F)F)c2)[C@H]2CC[C@@H]1/C2=C\C1CC1 [compound 638]
3 | COc1ccc(C2=NOC3CC(C(C)(C)O)CC23)cc1C(=O)N[C@H]1[C@@H](C(=O)Nc2ccc(F)c(C(F)(F)F)c2)[C@H]2CC[C@@H]1/C2=C\C1CC1 (single isomer, unassigned) [compound 462]
0.8 | COc1c(F)cc(C2=NOC3COCC23)cc1C(=O)N[C@H]1[C@@H](C(=O)Nc2ccc(F)c(C(F)(F)F)c2)[C@H]2CC[C@@H]1/C2=C\C1CC1 (some centres unmarked) [compound 791]
32.1 | COc1ccc(C2=NOC(COCCO)C2)cc1C(=O)N[C@H]1[C@@H](C(=O)Nc2ccc(F)c(C(F)(F)F)c2)[C@H]2CC[C@@H]1/C2=C\C1CC1 (some centres unmarked) [compound 546]
238 | COCCOc1ccc(C2=NOC3COCC23)cc1C(=O)N[C@H]1[C@@H](C(=O)Nc2ccc(F)c(C(F)(F)F)c2)[C@H]2CC[C@@H]1/C2=C\C1CC1 (single isomer, unassigned) [compound 644]
700 | COc1ccc(C2=CCCNC2)cc1C(=O)N[C@@H]1C2CCC(C2=C(C)C)[C@@H]1C(=O)Nc1ccc(F)c(C(F)(F)F)c1 (some centres unmarked) [Example 140]
10.5 | COc1ccc(C2=NOC3CCC(O)C23)cc1C(=O)N[C@H]1[C@@H](C(=O)Nc2ccc(F)c(C(F)(F)F)c2)[C@H]2CC[C@@H]1/C2=C\C1CC1 (single isomer, unassigned) [compound 496]
8.6 | COc1ccc(-c2cc(C3=NOC(C(=O)O)C3)ccc2F)cc1C(=O)N[C@H]1[C@@H](C(=O)Nc2ccc(F)c(C(F)(F)F)c2)[C@H]2CC[C@@H]1/C2=C\C1CC1 (some centres unmarked) [compound 948]
7 | COc1ccc(-c2cc(C3=NOC(CO)C3)ccc2F)cc1C(=O)N[C@H]1[C@@H](C(=O)Nc2ccc(F)c(C(F)(F)F)c2)[C@H]2CC[C@@H]1/C2=C\C1CC1 (some centres unmarked) [compound 905]
3140 | COc1ccc(C2CCCN2)cc1C(=O)N[C@@H]1C2CCC(C2=CC2CC2)[C@@H]1C(=O)Nc1ccc(F)c(C(F)(F)F)c1 (some centres unmarked) [compound 720]
4 | O=C(N[C@H]1C(C(=O)Nc2ccc(F)c(C(F)(F)F)c2)[C@H]2CC[C@@H]1/C2=C\C1CC1)c1cc(C2=NOC3COCC23)ccc1OCC(F)F (some centres unmarked) [compound 785]
10.4 | COc1ccc(C2=NOC3COCC23)cc1C(=O)N[C@H]1[C@@H](C(=O)NC2(C)CCCC2)[C@H]2CC[C@@H]1/C2=C\C1CC1 (some centres unmarked) [compound 494]
550 | COc1cc(F)c(F)cc1C(=O)N[C@@H]1C2CCC(/C2=C/Cc2ccccc2)[C@@H]1C(=O)Nc1ccc(F)c(C(F)(F)F)c1 (some centres unmarked) [compound 57]
19.5 | COc1ccc(C2=NOC3COCC23)cc1C(=O)N[C@H]1[C@@H](C(=O)NC(C2CC2)C2CC2)[C@H]2CC[C@@H]1/C2=C\C1CC1 (some centres unmarked) [compound 521]
700 | COc1cc(F)c(F)cc1C(=O)N[C@@H]1C2CCC(/C2=C/c2cccnc2)[C@@H]1C(=O)Nc1ccc(F)c(C(F)(F)F)c1 (some centres unmarked) [compound 22]

The remaining lines, values behind:

SMILES | EC50 [nM]
COc1cc(F)c(C2=NOC3COCC23)cc1C(=O)N[C@H]1[C@@H](C(=O)Nc2ccc(F)c(C(F)(F)F)c2)[C@H]2CC[C@@H]1/C2=C\C1CC1 (single isomer, unassigned) [compound 463] | 3.1
COc1ccc(C2=NOC3COCC23)cc1C(=O)N[C@H]1[C@@H](C(=O)NCC2CCC2)[C@H]2CC[C@@H]1/C2=C\C1CC1 (some centres unmarked) [compound 597] | 102
COc1ccc(C2CCN(C(=O)C(C)(C)O)C2)cc1C(=O)N[C@@H]1C2CCC(C2=CC2CC2)[C@@H]1C(=O)Nc1ccc(F)c(C(F)(F)F)c1 (some centres unmarked) [compound 555] | 41.4
COc1ccc(-c2ccnc(N3CCOCC3)c2F)cc1C(=O)N[C@H]1[C@@H](C(=O)Nc2ccc(F)c(C(F)(F)F)c2)[C@H]2CC[C@@H]1C2=C(C)C [compound 85] | 130
COc1ccc(C2=NOC3CC(CO)CC23)cc1C(=O)N[C@H]1[C@@H](C(=O)Nc2ccc(F)c(C(F)(F)F)c2)[C@H]2CC[C@@H]1C2CC(F)(F)F (some centres unmarked) [compound 550] | 34.9
COc1ccc(C2=NOC3COCC23)cc1C(=O)N[C@H]1[C@@H](C(=O)NCC2CC2)[C@H]2CC[C@@H]1/C2=C\C1CC1 (some centres unmarked) [compound 684] | 642
COc1ccc(-c2cnc3nn(CC(=O)O)cc3c2)cc1C(=O)N[C@@H]1C2CCC(/C2=C/C(F)(F)F)[C@@H]1C(=O)Nc1ccc(F)c(C(F)(F)F)c1 (some centres unmarked) [compound 318] | 11
COC(=O)N1Cc2cccc(-c3ccc(OC)c(C(=O)N[C@@H]4C5CCC(/C5=C/C5CC5)[C@@H]4C(=O)Nc4ccc(F)c(C(F)(F)F)c4)c3)c2C1 (some centres unmarked) [compound 881] | 3.1
COc1ccc(C2=NO[C@H]3CC(CO)C[C@@H]23)cc1C(=O)N[C@H]1[C@@H](C(=O)Nc2ccc(F)c(C(F)(F)F)c2)[C@H]2CC[C@@H]1/C2=C\CC(C)C (some centres unmarked) [compound 822] | 2.5
COc1ccc(C2=NOC(C(N)=O)C2)cc1C(=O)N[C@@H]1C2CCC(/C2=C/C2CC2)[C@@H]1C(=O)Nc1ccc(F)c(C(F)(F)F)c1 (some centres unmarked) [compound 404] | 45
COc1ccc(-c2ccnc(C(F)F)c2)cc1C(=O)N[C@@H]1C2CCC(/C2=C/C2CC2)[C@@H]1C(=O)Nc1ccc(F)c(C(F)(F)F)c1 (some centres unmarked) [compound 284] | 109
COc1ccc(C2CCCN(C(=O)C(=O)O)C2)cc1C(=O)NC1C2CCC(/C2=C/C(F)(F)F)C1C(=O)Nc1ccc(F)c(C(F)(F)F)c1 (centres unmarked) [compound 368] | 639
COc1ccc(N2CCC(NC(=O)C3CCOCC3)C2)cc1C(=O)N[C@@H]1C2CCC(/C2=C/C(F)(F)F)[C@@H]1C(=O)Nc1ccc(F)c(C(F)(F)F)c1 (single isomer, unassigned) [compound 336] | 1930
COc1ccc([C@H]2CO[C@@H]3[C@H]2OC[C@@H]3O)cc1C(=O)N[C@H]1[C@@H](C(=O)Nc2ccc(F)c(C(F)(F)F)c2)[C@H]2CC[C@@H]1/C2=C\C1CC1 [compound 560] | 45.3
COc1c(F)cc(C2=NO[C@@H]3C[C@H](CO)CN23)cc1C(=O)N[C@H]1[C@@H](C(=O)Nc2ccc(F)c(C(F)(F)F)c2)[C@H]2CC[C@@H]1/C2=C\C1CC1 [compound 852] | 3.1
COc1ccc(-c2cc(C(OC(=O)Nc3ccccc3)C(=O)O)ccc2F)cc1C(=O)N[C@@H]1C2CCC(/C2=C/C2CC2)[C@@H]1C(=O)Nc1ccc(F)c(C(F)(F)F)c1 (some centres unmarked) [Example 177] | 5
COc1ccc(C2=NOC3(CCOCC3)C2)cc1C(=O)N[C@@H]1C2CCC(/C2=C/C2CC2)[C@@H]1C(=O)Nc1ccc(F)c(C(F)(F)F)c1 (some centres unmarked) [compound 402] | 70
COc1cc(C(=O)N[C@H]2[C@@H](C(=O)Nc3ccc(F)c(C(F)(F)F)c3)[C@H]3CC[C@@H]2/C3=C\C2CC2)cc(C2=NOC3COCC23)c1 (single isomer, unassigned) [compound 602] | 110
COc1ccc(-c2cc(C(=O)O)ccc2F)cc1C(=O)N[C@@H]1C2CCC(/C2=C/C2CC2)[C@@H]1C(=O)Oc1cccc(-c2nnnn2C)c1 (some centres unmarked) [compound 272] | 3830
COc1cc(F)c(F)cc1C(=O)N[C@@H]1C2CCC(C2=C(C)C)[C@@H]1C(=O)Nc1cccc(S(=O)(=O)C(F)(F)F)c1 (some centres unmarked) [compound 55] | 230
COc1ccc(C2=NOC3COCC23)cc1C(=O)N[C@H]1[C@@H](C(=O)N[C@H](C)C2CCCC2)[C@H]2CC[C@@H]1/C2=C\C1CC1 (some centres unmarked) [compound 535] | 24
CNC(=O)OC(C(=O)NC)c1ccc(F)c(-c2ccc(OC)c(C(=O)N[C@@H]3C4CCC(/C4=C/C4CC4)[C@@H]3C(=O)Nc3ccc(F)c(C(F)(F)F)c3)c2)c1 (some centres unmarked) [compound 235] | 1
COc1ccc(C2=NOC3CC(CO)CC23)cc1C(=O)N[C@@H]1C2CCC(/C2=C/C2CC2)[C@@H]1C(=O)Nc1ccc(F)c(C(F)(F)F)c1 (single isomer, unassigned) [compound 433] | 2
COc1ccc(C2=NOC(CO)C2)cc1C(=O)N[C@@H]1C2CCC(/C2=C/C2CC2)[C@@H]1C(=O)Nc1ccc(F)c(C(F)(F)F)c1 (some centres unmarked) [compound 382] | 118
